For 6 compounds, EC50 and MIC results are on record in patent US12173018B2, “Penicillin-binding protein inhibitors” (priority 2018, dated 2024).

One assay deals with E. coli PBP3 (Escherichia coli (strain K12), UniProt P0AD68). The experiment in a line: E. coli PBP3 Bocillin-FL fluorescence polarization competition binding assay. The method in brief:
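Purified E. coli PBP (1.5 μM final) competed with inhibitor (0-1000 μM) for Bocillin-FL (0.1 μM final) in 50 mM Hepes pH 8.0, 300 mM NaCl, 5% glycerol. Fluorescence polarization (ex 490/em 520 nm) was read continuously for 60 min after Bocillin-FL addition. EC50 was the concentration that reduced Bocillin-FL binding by 50%.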
Background: Polarisation of emitted light reports the rotation of a fluorescent probe.

In the next assay the target is E. coli PBP1a (Escherichia coli (strain K12), UniProt P02918). As to the kind of experiment: Radioligand competition binding assay with 14C-labeled boronic acid probe, PBP1a. From the text:
To determine the ability of boronic acid-based test PBP inhibitors to bind Penicillin Binding Proteins (PBPs), a radio-labelled boronic acid PBP inhibitor
[drawing 751] was used in competition binding assays to determine boronic acid PBP inhibitor binding to PBP1a or PBP1b from Escherichia coli. PBP1a and PBP1b were purified as described previously (Bertsche, U.; et al., J. Biol. Chem. 2005, 280 (45), 38096-38101; Born, P.; et al., J. Biol. Chem. 2006. 281 (37), 26985-26993). To establish assay conditions for competition binding, an enzyme titration/saturation binding experiment was performed. Saturation binding was performed in a buffer comprised of 20 mM Tris (pH 7.5), 500 mM NaCl and 0.1% (v/v) TritonX-100, with PBP1a/PBP1b at a final concentration of 0.1 μM and Compound A at final concentrations ranging from 0-100 μM. Mixtures were incubated for 60 minutes, then applied to Zeba Spin Desalting columns or plates (ThermoFisher Scientific) and centrifuged at 1000-1500×g for 2 minutes. The flow through, containing PBP bound with Compound A, was recovered and 100 μL mixed with 5 mL of UltimaGold liquid scintillation cocktail (Perkin Elmer), and the radioactivity counted using a Beckman Coulter LS 6500 Multipurpose scintillation counter. PBP binding of Compound A approached saturation at 20 μM of ^14C-labeled probe. The competition binding assay was validated using the beta-lactam ampicillin, with Compound A at a final concentration of 20 μM, PBP1a/PBP1b at a final concentration of 0.1 μM. PBP1a/PBP1b was incubated with ampicillin in a 96-well microplate for 60 minutes, then Compound A was added and the mixtures incubated for an additional 60 minutes. The mixtures were then applied to Zeba Spin desalting plates and centrifuged at 1000×g for 2 minutes. The flow through was recovered and 100 μl mixed with 5 ml of UltimaGold liquid scintillation cocktail and the radioactivity counted. […] Binding assays with boronic acid PBP inhibitors were performed in an identical fashion. The potency of boronic acid PBP inhibitors was reported as the EC50 value.

Assay [1] concerns engineered strain of Escherichia coli harboring CTX-M15. As to the kind of experiment: microbe, parasite or virus in culture. The class given is cell-based. The settings on record: Escherichia coli, read-out: Microbiological Activity (MIC in mg/L), E. coli DH5α/pLBII-CTX-M15, engineered strain producing CTX-M15.
Another assay concerns the target E. coli PBP2 (Escherichia coli (strain K12), UniProt P0AD65). The experiment in a line: E. coli PBP2 Bocillin-FL fluorescence polarization competition binding assay. The settings on record: fluorescence polarization competition binding with Bocillin-FL; read-out: E. coli K12 PBP2 Potency (EC50). The text has this:
To determine the ability of boronic acid-based test PBP inhibitors to bind Penicillin Binding Proteins (PBPs), Bocillin-FL (fluorescently-labeled penicillin V; ThermoFisher Scientific) was used in a fluorescence polarization (FP) competition binding assay to assess inhibitor binding to PBP2, PBP3 or PBP4 from Escherichia coli. PBPs were cloned and purified as described previously (King, D. T, et al., ACS Infectious Diseases 2015, 1, 175-184). To establish assay conditions for competition binding, an enzyme titration/saturation binding experiment was initially performed. Bocillin-FL was prepared at 0.2 μM in a buffer comprised of 50 mM Hepes (pH 8.0), 300 mM NaCl and 5% (v/v) glycerol. Saturation binding was performed by mixing 40 μl of PBP solutions ranging in concentrations from 0-12 μM with 40 μl of the 0.2 μM Bocillin-FL solution, in individual wells of a black 384-well microplate. FP was measured immediately upon mixing (Excitation, 490 nm; Emission, 520 nm; g-factor, 0.96), using a Cytation3 (BioTek) microplate reader and measured continuously for up to 120 minutes. […] For all PBPs the FP signal approached saturation with 1.5 μM PBP (final concentration). […] Assays (80 μl final volume) were performed with PBPs at a final concentration of 1.5 μM, Bocillin-FL at 0.1 μM and beta-lactam concentrations that ranged from 0-1000 μM. […] Bocillin-FL was added and the FP immediately measured for 60 minutes (90 minutes for PBP2). The beta-lactam potency was reported as the concentration of beta-lactam required to reduce binding of Bocillin-FL by […] (EC50). […] Binding assays for boronic acid PBP inhibitors were performed in an identical fashion.

The test system of assay [2] is N. gonorrhoeae ATCC 49226. The experiment in a line: Liquid broth MIC, N. gonorrhoeae ATCC 49226. It counts as cell-based. The settings on record: Neisseria gonorrhoeae, ATCC49226; N. gonorrhoeae ATCC 49226, liquid broth; read-out: Minimum Inhibitory Concentration, N. gonorrhoeae ATCC 49226. The method in brief:
(§1)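 Broth microdilution in wild-type strains: colonies from GC agar with 1% Kellogg's supplement suspended in GC broth, inoculated at 5×10^5 CFU/mL into 2-fold compound dilutions. Plates incubated 40-42 hours at 36° C., 5% CO2; MIC read visually as lowest concentration with no growth.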

A further assay relates to N. gonorrhoeae FA1090. The experiment in a line: Liquid broth MIC, N. gonorrhoeae FA1090. It counts as cell-based. The settings on record: Neisseria gonorrhoeae; N. gonorrhoeae FA1090, liquid broth; read-out: Minimum Inhibitory Concentration, N. gonorrhoeae FA1090. The procedure, abridged:
as §1

A further assay has as its system N. gonorrhoeae WHO F. As to the kind of experiment: Liquid broth MIC, N. gonorrhoeae WHO F. It counts as cell-based. The conditions noted are these: Neisseria gonorrhoeae; N. gonorrhoeae WHO F, liquid broth; read-out: Minimum Inhibitory Concentration, N. gonorrhoeae WHO F. The procedure, abridged:
as §1

The next assay relates to N. gonorrhoeae FA19. As to the kind of experiment: Liquid broth MIC, N. gonorrhoeae FA19. The class given is cell-based. The settings on record: Neisseria gonorrhoeae; N. gonorrhoeae FA19, liquid broth; read-out: Minimum Inhibitory Concentration, N. gonorrhoeae FA19. The method in brief: as §1
In another assay the target is E. coli PBP1b (Escherichia coli (strain K12), UniProt P02919). As to the kind of experiment: Radioligand competition binding assay with 14C-labeled boronic acid probe, PBP1b. On the technique in general: In a radioligand displacement assay an active substance lowers the binding of a labelled ligand.
Assay [3] deals with P. aeruginosa (ΔmexAB-oprM). The experiment in a line: microbe, parasite or virus in culture. It counts as cell-based. The settings on record: Pseudomonas aeruginosa, read-out: MIC P. aeruginosa ΔmexAB-OprM. The method in brief:
(§2)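 Broth microdilution MICs followed CLSI methods in cation-supplemented Mueller-Hinton broth, with 2-fold serial compound dilutions. Log-phase cultures grown 3–5 h were added to a starting inoculum of 5×10^5 CFU/mL and incubated 16–20 h at 37 °C. The MIC was read visually as the lowest concentration with no growth.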

The subject of the next assay is P. aeruginosa ATCC 35151. As to the kind of experiment: microbe, parasite or virus in culture. It counts as cell-based. The conditions noted are these: Pseudomonas aeruginosa, ATCC35151; hyper-permeable P. aeruginosa ATCC 35151; read-out: MIC P. aeruginosa ATCC 35151. The method in brief:
as §2

The next assay relates to P. aeruginosa PAO1. As to the kind of experiment: Broth microdilution MIC, P. aeruginosa PAO1. The conditions noted are these: Pseudomonas aeruginosa; P. aeruginosa PAO1, broth microdilution; read-out: MIC P. aeruginosa PAO1. It counts as cell-based. The method in brief: as §2
The subject of the next assay is A. baumannii ATCC 19606. The experiment in a line: Broth microdilution MIC, A. baumannii ATCC 19606. The settings on record: Acinetobacter baumannii, ATCC19606; A. baumannii ATCC 19606, broth microdilution; read-out: MIC A. baumannii ATCC 19606. The class given is cell-based. The protocol: To determine the ability of test compounds to potentiate the inhibition of the growth of bacterial strains, classic cell based broth microdilution minimum inhibitory concentration (MIC) assays were employed. MIC assays are performed according to CLSI methods except where otherwise noted (CLSI, 2011 and CLSI, 2009). The reference type strain E. coli ATCC 25922, the wild-type parent strain E. coli AG100, the hyper-permeable E. coli 901C and E. coli D22 and the E. coli AG100A strain lacking the acrAB efflux pump encoding genes were used to determine the ability of the PBP inhibitors to penetrate the outer membrane of gram-negative bacteria and inhibit bacterial growth. […] The P. aeruginosa PAO1, P. aeruginosa ATCC 27853 and A. baumannii ATCC 19606, along with the hyper-permeable P. aeruginosa ATCC 35151 and an engineered efflux pump-compromised strain of P. aeruginosa (ΔmexAB-oprM) were used to determine the ability of PBP inhibitors to penetrate the outer membrane of P. aeruginosa and A. baumannii and assess antibacterial activity against these important gram-negative organisms.
Briefly, cryo-preserved bacterial cultures of challenge strains are streaked for isolation on appropriate agar medium, in this case Mueller Hinton II agar. Following incubation to allow growth of the colonies, plates are sealed with parafilm and stored refrigerated for up to two weeks. For preparation of assay inoculum and to ensure low variability, at least 5 colonies are picked from the agar plates with an inoculating loop and aseptically transferred to a culture tube containing 3 mL of Mueller-Hinton Broth (supplemented with divalent cations to required levels based on Manufacturers' certification). The broth culture is grown for 3-5 hours at 37° C. with shaking at 200 rpm. Meanwhile, 2-fold serial dilutions of test compounds are conducted in a 96 well plate with a final volume of 75 μL per well at 2-fold the final desired concentration. After the dilution plates are set up the growing cultures are then diluted in a cuvette containing MH II broth and the optical density is measured at 600 nm. The Inoculum is diluted such that 75 μL of this culture in Mueller-Hinton Broth results in a starting bacterial concentration of 5×10^5 CFU/mL when added to the dilution plates. The plates are incubated for 16-20 hours at 37° C. The MIC values are read visually as the lowest concentration well with no bacterial growth.
A general note: Dilution methods test growth across graded concentrations, often in twofold steps.

Values after ≈ are worked out from the molar mass of the structure shown.

E. coli PBP2, sequence (P0AD65 whole entry): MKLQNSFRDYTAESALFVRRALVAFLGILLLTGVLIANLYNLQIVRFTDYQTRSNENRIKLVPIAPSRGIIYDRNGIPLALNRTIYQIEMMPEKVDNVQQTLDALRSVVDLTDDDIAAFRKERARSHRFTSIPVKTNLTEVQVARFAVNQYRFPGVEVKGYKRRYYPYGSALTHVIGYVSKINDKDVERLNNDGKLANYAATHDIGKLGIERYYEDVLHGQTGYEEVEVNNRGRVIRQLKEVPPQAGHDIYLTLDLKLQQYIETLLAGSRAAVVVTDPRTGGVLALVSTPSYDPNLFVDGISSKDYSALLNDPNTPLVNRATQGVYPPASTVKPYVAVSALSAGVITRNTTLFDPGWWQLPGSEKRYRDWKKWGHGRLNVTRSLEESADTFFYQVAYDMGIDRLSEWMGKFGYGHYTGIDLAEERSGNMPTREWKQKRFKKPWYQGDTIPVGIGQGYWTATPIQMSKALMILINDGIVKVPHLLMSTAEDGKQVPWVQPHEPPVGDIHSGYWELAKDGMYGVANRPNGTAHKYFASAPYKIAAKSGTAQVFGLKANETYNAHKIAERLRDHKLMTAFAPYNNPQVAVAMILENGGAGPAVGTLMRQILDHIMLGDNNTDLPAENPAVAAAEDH
E. coli PBP3, sequence (P0AD68 whole entry): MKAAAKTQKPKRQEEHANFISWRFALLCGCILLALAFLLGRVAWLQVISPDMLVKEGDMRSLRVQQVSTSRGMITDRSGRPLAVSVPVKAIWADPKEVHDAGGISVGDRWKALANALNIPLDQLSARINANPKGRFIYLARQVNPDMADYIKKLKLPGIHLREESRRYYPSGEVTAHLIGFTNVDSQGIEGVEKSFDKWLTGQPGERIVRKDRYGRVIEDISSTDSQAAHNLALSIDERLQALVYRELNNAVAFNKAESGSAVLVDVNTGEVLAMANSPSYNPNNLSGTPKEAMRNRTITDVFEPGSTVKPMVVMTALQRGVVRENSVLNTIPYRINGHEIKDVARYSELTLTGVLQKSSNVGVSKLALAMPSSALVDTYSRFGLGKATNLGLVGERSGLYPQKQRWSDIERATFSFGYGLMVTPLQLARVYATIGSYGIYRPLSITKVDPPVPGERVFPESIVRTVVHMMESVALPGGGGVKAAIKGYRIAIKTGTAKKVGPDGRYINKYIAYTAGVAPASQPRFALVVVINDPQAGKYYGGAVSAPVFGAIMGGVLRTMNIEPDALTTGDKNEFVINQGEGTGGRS
E. coli PBP1a, sequence (P02918 whole entry): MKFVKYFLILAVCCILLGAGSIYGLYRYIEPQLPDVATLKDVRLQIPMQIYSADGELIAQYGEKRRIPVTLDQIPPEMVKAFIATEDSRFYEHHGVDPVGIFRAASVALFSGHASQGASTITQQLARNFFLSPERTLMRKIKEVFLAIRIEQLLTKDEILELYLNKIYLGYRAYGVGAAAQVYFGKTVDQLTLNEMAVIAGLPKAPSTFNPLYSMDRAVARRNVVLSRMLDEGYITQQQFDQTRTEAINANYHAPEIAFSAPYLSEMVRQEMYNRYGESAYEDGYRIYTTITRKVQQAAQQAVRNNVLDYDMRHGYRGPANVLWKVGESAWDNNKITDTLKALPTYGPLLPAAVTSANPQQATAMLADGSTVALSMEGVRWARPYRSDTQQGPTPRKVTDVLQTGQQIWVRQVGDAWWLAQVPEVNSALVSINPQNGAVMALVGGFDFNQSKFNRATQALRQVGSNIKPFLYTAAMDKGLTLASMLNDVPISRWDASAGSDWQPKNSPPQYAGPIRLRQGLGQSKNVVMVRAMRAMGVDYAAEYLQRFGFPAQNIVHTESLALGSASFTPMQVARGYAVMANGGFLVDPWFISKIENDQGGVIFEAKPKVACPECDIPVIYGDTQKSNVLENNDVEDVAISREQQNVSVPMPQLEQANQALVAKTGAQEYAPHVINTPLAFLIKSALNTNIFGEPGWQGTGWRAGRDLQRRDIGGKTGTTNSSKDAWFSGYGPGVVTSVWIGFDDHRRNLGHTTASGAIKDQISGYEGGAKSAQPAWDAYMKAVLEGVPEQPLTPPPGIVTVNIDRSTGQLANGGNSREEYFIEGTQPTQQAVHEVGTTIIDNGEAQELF
E. coli PBP1b, sequence (P02919 whole entry): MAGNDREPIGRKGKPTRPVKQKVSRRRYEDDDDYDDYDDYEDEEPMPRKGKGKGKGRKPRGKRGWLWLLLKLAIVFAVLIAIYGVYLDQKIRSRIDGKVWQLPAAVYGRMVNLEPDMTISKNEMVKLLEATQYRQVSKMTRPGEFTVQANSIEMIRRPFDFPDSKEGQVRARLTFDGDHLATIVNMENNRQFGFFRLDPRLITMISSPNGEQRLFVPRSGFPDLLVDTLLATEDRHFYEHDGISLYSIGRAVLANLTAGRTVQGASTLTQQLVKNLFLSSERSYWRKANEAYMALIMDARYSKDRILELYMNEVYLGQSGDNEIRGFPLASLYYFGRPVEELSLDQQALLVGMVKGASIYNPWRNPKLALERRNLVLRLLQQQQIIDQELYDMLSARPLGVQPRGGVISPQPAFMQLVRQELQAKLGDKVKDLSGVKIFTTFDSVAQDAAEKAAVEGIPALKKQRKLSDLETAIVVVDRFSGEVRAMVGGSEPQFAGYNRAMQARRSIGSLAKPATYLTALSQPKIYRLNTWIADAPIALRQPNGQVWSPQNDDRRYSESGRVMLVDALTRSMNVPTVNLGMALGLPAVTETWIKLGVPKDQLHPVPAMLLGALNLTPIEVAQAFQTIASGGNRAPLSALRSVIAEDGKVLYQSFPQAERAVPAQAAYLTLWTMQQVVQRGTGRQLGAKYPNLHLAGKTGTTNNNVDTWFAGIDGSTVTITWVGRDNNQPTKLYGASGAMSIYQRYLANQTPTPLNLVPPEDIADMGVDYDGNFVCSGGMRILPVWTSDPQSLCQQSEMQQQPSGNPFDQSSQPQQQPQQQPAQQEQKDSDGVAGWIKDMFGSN

Consider `CCN1CCN(C(=O)NC(C(=O)N[C@H]2Cc3cccc(C(=O)O)c3OB2O)C(O)c2ccc(O)c(O)c2)C(=O)C1=O` (stereo partly drawn) [Example 46, (3R)-3-(3-(3,4-dihydroxyphenyl)-2-(4-ethyl-2,3-dioxopiperazine-1-carboxamido)-3-hydroxypropanamido)-2-hydroxy-3,4-dihydro-2H-benzo[e][1,2]oxaborinine-8-carboxylic acid], for which the half-maximal effective concentration (EC50) on E. coli PBP3 was 30 to 500 µM; on E. coli PBP1a, < 10 µM.

In the case of `CCN1CCN(C(=O)NC(C(=O)N[C@H]2Cc3cccc(C(=O)O)c3OB2O)c2ccc(OCCF)cc2)C(=O)C1=O` (stereo partly drawn) [Example 76, (3R)-3-(2-(4-ethyl-2,3-dioxopiperazine-1-carboxamido)-2-(4-(2-fluoroethoxy)phenyl)acetamido)-2-hydroxy-3,4-dihydro-2H-benzo[e][1,2]oxaborinine-8-carboxylic acid], the concentration for a half-maximal effect (EC50) on E. coli PBP3 is 30 to 500 µM; on E. coli PBP1a it was < 10 µM. Besides, the MIC in [1] lay in the range of 128 to 256 mg/L (≈ 224 to 449 µM).

Turning to `CCN1CCN(C(=O)NC(C(=O)N[C@H]2Cc3cccc(C(=O)O)c3OB2O)c2ccc(O)nc2F)C(=O)C1=O` (stereo partly drawn) [Example 86, (3R)-3-(2-(4-ethyl-2,3-dioxopiperazine-1-carboxamido)-2-(2-fluoro-6-hydroxypyridin-3-yl)acetamido)-2-hydroxy-3,4-dihydro-2H-benzo[e][1,2]oxaborinine-8-carboxylic acid], the EC50 was 30 to 500 µM at E. coli PBP3 and < 10 µM on E. coli PBP1a. Besides, in assay [1], the MIC lay in the range of 128 to 256 mg/L (≈ 236 to 471 µM).

For the compound `CCCN1CCN(C(=O)NC(C(=O)N[C@H]2Cc3cccc(C(=O)O)c3OB2O)c2cnc(N)s2)C(=O)C1=O` (stereo partly drawn) [Example 101, (3R)-3-(2-(2-aminothiazol-5-yl)-2-(2,3-dioxo-4-propylpiperazine-1-carboxamido)acetamido)-2-hydroxy-3,4-dihydro-2H-benzo[e][1,2]oxaborinine-8-carboxylic acid], the EC50 on E. coli PBP3 is 30 to 500 µM; at E. coli PBP2, > 500 µM. Further, the MIC was 1 to 2 µg/mL (≈ 1.84 to 3.67 µM) in assay [2]; < 0.125 µg/mL in the assay on N. gonorrhoeae FA1090; < 0.125 µg/mL in the assay with N. gonorrhoeae WHO F; 1 to 2 µg/mL (≈ 1.84 to 3.67 µM) with N. gonorrhoeae FA19; 32 to 64 mg/L (≈ 58.8 to 118 µM) in assay [1].

For `CCN1CCN(C(=O)NC(C(=O)N[C@H]2Cc3cccc(C(=O)O)c3OB2O)c2ccc(F)cn2)C(=O)C1=O` (stereo partly drawn) [Example 114, (3R)-3-(2-(4-ethyl-2,3-dioxopiperazine-1-carboxamido)-2-(5-fluoropyridin-2-yl)acetamido)-2-hydroxy-3,4-dihydro-2H-benzo[e][1,2]oxaborinine-8-carboxylic acid], the EC50 on E. coli PBP3 is 30 to 500 µM; on E. coli PBP2 it was > 500 µM; at E. coli PBP1b, > 100 µM. Moreover, in assay [1], the MIC fell in the range of 128 to 256 mg/L (≈ 243 to 486 µM).

In the case of `CCN1CCN(C(=O)N[C@@H](C(=O)N[C@H]2Cc3ccc(F)c(C(=O)O)c3OB2O)c2ccsc2)C(=O)C1=O` [Example 138, (R)-3-((R)-2-(4-ethyl-2,3-dioxopiperazine-1-carboxamido)-2-(thiophen-3-yl)acetamido)-7-fluoro-2-hydroxy-3,4-dihydro-2H-benzo[e][1,2]oxaborinine-8-carboxylic acid], the EC50 at E. coli PBP3 is < 30 µM; on E. coli PBP2, > 500 µM. Moreover, the MIC in assay [3] is 32 to 64 µg/mL; in the assay with P. aeruginosa ATCC 35151 it was 0.5 to 1 µg/mL; in the assay on P. aeruginosa PAO1, > 128 µg/mL; in the assay with A. baumannii ATCC 19606 it was > 128 µg/mL.

As usually defined, the EC50 is the concentration that produces a half-maximal response.
